Measurements from patent publication US20150223463A1, “SPIROCYCLIC ISOXAZOLINE DERIVATIVES FOR TREATMENT OF SEA LICE” (Zoetis LLC, priority 2012, published 2015).

Test system: Lepeophtheirus salmonis (sea lice)
Experiment: Sea lice bioassay, 24 hours exposure to test compound
Format: in vivo
Conditions: predominantly pre-adult and adult stage, generally chemical resistant strain

Substance: Emamectin
- Adult Females (EC50) (adult female sea lice): 65 ppb
- Adult Males (EC50) (adult male sea lice): 202 ppb
